Measurements as given in patent US20020065219A1, “Water soluble thiazolyl peptide derivatives” (priority 2000, published 2002).
≈ marks a conversion by molar mass, not a printed value. Read-outs that look alike come from different tables or passages of the source.

Experiments:
Assay in all cases: MIC, broth micro dilution assay (NCCLS)
Format in all cases: cell-based
[1] = tested on: Streptococcus pneumoniae A28272; settings: for MIC: Streptococcus pneumoniae, A28272, 18 h, read-out: MIC (μg/mL) against Streptococcus pneumoniae A28272
[2] = tested on: Staphylococcus aureus A15090; settings: for MIC: Staphylococcus aureus, A15090, 18 h, read-out: MIC (μg/mL) against Staphylococcus aureus A15090
[3] = tested on: Enterococcus faecalis A20688; settings: for MIC: Enterococcus faecalis, A20688, 18 h, read-out: MIC (μg/mL) against Enterococcus faecalis A20688
[4] = 50% Mueller-Hinton medium and 50% Todd Hewitt medium, 35° C., 18 hours
[5] = Mueller-Hinton medium, 35° C., 18 hours

SMILES	MIC (μg/mL) against Streptococcus pneumoniae A28272 [1, 4] [µg/mL]	MIC (μg/mL) against Staphylococcus aureus A15090 [2, 5] [µg/mL]	MIC (μg/mL) against Enterococcus faecalis A20688 [3, 5]	other results
COC(C)=C1NC(=O)C(C(C)O)NC(=O)c2csc(n2)-c2cc(O)c(-c3nc(C(=O)NC(CN4CCCC4C(O)c4nccn4C)C(N)=O)cs3)nc2-c2csc(n2)C2COC(=O)c3c4c5c(cccc5n3O)COC(=O)C(OC3CC(C)(O)C(N(C)C)C(C)O3)C(OC4)C(NC(=O)c3csc1n3)c1nc(cs1)C(=O)N2 (stereo not drawn) [Example 91]	0.015 (≈ 0.00927 µM)	0.03 (≈ 0.0185 µM)	0.06 µg/mL (≈ 0.0371 µM)	
COCC1CCCN1CC(NC(=O)c1csc(-c2nc3c(cc2O)-c2nc(cs2)C(=O)NC(C(C)O)C(=O)NC(=C(C)OC)c2nc(cs2)C(=O)NC2c4nc(cs4)C(=O)NC(COC(=O)c4c5c6c(cccc6n4O)COC(=O)C(O)C2OC5)c2nc-3cs2)n1)C(N)=O (stereo not drawn) [Example 98]	0.003 (≈ 0.00217 µM)	0.03 (≈ 0.0217 µM)	0.5 µg/mL (≈ 0.362 µM)	
CO/C(C)=C1/NC(=O)C(C(C)O)NC(=O)c2csc(n2)-c2cc(O)c(-c3nc(C(=O)NC(CNCCN(C)C)C(N)=O)cs3)nc2-c2csc(n2)C2COC(=O)c3c4c5c(cccc5n3O)COC(=O)C(O[C@H]3C[C@](C)(O)[C@H](N(C)C)[C@H](C)O3)C(OC4)C(NC(=O)c3csc1n3)c1nc(cs1)C(=O)N2 (stereo partly drawn) [Example 17]	0.03 (≈ 0.0197 µM)	2.0 (≈ 1.31 µM)	4.0 µg/mL (≈ 2.62 µM)	
COC(C)=C1NC(=O)C(C(C)O)NC(=O)c2csc(n2)-c2cc(O)c(-c3nc(C(=O)NC(CNC(CO)Cc4c[nH]cn4)C(N)=O)cs3)nc2-c2csc(n2)C2COC(=O)c3c4c5c(cccc5n3O)COC(=O)C(OC3CC(C)(O)C(N(C)C)C(C)O3)C(OC4)C(NC(=O)c3csc1n3)c1nc(cs1)C(=O)N2 (stereo not drawn) [Example 67]	1.0 (≈ 0.633 µM)	2.0 (≈ 1.27 µM)	8.0 µg/mL (≈ 5.07 µM)	
COC(C)=C1NC(=O)C(C(C)O)NC(=O)c2csc(n2)-c2cc(O)c(-c3nc(C(=O)NC(CNC(CO)Cc4c[nH]cn4)C(N)=O)cs3)nc2-c2csc(n2)C2COC(=O)c3c4c5c(cccc5n3O)COC(=O)C(OC3CC(C)(O)C(N(C)C)C(C)O3)C(OC4)C(NC(=O)c3csc1n3)c1nc(cs1)C(=O)N2 (stereo not drawn) [Example 66]	2.0 (≈ 1.27 µM)	2.0 (≈ 1.27 µM)	16 µg/mL (≈ 10.1 µM)	
COC(C)=C1NC(=O)C(C(C)O)NC(=O)c2csc(n2)-c2cc(O)c(-c3nc(C(=O)NC(CSCC4NC(=O)NC4=O)C(N)=O)cs3)nc2-c2csc(n2)C2COC(=O)c3c4c5c(cccc5n3O)COC(=O)C(OC3CC(C)(O)C(N(C)C)C(C)O3)C(OC4)C(NC(=O)c3csc1n3)c1nc(cs1)C(=O)N2 (stereo not drawn) [Example 45]	0.03 (≈ 0.0189 µM)	4.0 (≈ 2.53 µM)	128 µg/mL (≈ 80.8 µM)	
COC(C)=C1NC(=O)C(C(C)O)NC(=O)c2csc(n2)-c2cc(O)c(-c3nc(C(=O)NC(CN4CCC(O)C4)C(N)=O)cs3)nc2-c2csc(n2)C2COC(=O)c3c4c5c(cccc5n3O)COC(=O)C(OC3CC(C)(O)C(N(C)C)C(C)O3)C(OC4)C(NC(=O)c3csc1n3)c1nc(cs1)C(=O)N2 (stereo not drawn) [Example 37]	0.007 (≈ 0.00459 µM)	0.06 (≈ 0.0394 µM)	0.125 µg/mL (≈ 0.082 µM)	
COC[C@@H]1CCCN1CC(NC(=O)c1csc(-c2nc3c(cc2O)-c2nc(cs2)C(=O)NC(C(C)O)C(=O)N/C(=C(\C)OC)c2nc(cs2)C(=O)NC2c4nc(cs4)C(=O)NC(COC(=O)c4c5c6c(cccc6n4O)COC(=O)C(O[C@H]4C[C@](C)(O)[C@H](N(C)C)[C@H](C)O4)C2OC5)c2nc-3cs2)n1)C(N)=O (stereo partly drawn) [Example 63]	0.03 (≈ 0.0193 µM)	0.125 (≈ 0.0805 µM)	0.25 µg/mL (≈ 0.161 µM)	
COC(C)=C1NC(=O)C(C(C)O)NC(=O)c2csc(n2)-c2cc(O)c(-c3nc(C(=O)NC(CN4CCCC4C(O)C4CCCCC4)C(N)=O)cs3)nc2-c2csc(n2)C2COC(=O)c3c4c5c(cccc5n3O)COC(=O)C(OC3CC(C)(O)C(N(C)C)C(C)O3)C(OC4)C(NC(=O)c3csc1n3)c1nc(cs1)C(=O)N2 (stereo not drawn) [Example 90]	0.007 (≈ 0.00432 µM)	0.03 (≈ 0.0185 µM)	0.06 µg/mL (≈ 0.037 µM)	
COC(C)=C1NC(=O)C(C(C)O)NC(=O)c2csc(n2)-c2cc(O)c(-c3nc(C(=O)NC(CN(C)CCc4ccccn4)C(N)=O)cs3)nc2-c2csc(n2)C2COC(=O)c3c4c5c(cccc5n3O)COC(=O)C(O)C(OC4)C(NC(=O)c3csc1n3)c1nc(cs1)C(=O)N2 (stereo not drawn) [Example 93]	0.001 (≈ 0.000713 µM)	0.06 (≈ 0.0428 µM)	0.06 µg/mL (≈ 0.0428 µM)	
CNC(=O)N(C)CC(NC(=O)c1csc(-c2nc3c(cc2O)-c2nc(cs2)C(=O)NC(C(C)O)C(=O)N/C(=C(\C)OC)c2nc(cs2)C(=O)NC2c4nc(cs4)C(=O)NC(COC(=O)c4c5c6c(cccc6n4O)COC(=O)C(OC4CC(C)(O)C(N(C)C)C(C)O4)C2OC5)c2nc-3cs2)n1)C(N)=O (stereo not drawn) [Example 109]	0.06 (≈ 0.0393 µM)	0.06 (≈ 0.0393 µM)	0.5 µg/mL (≈ 0.328 µM)	
CCC(O)C1CCCN1CC(NC(=O)c1csc(-c2nc3c(cc2O)-c2nc(cs2)C(=O)NC(C(C)O)C(=O)NC(=C(C)OC)c2nc(cs2)C(=O)NC2c4nc(cs4)C(=O)NC(COC(=O)c4c5c6c(cccc6n4O)COC(=O)C(OC4CC(C)(O)C(N(C)C)C(C)O4)C2OC5)c2nc-3cs2)n1)C(N)=O (stereo not drawn) [Example 87]	0.007 (≈ 0.00447 µM)	0.015 (≈ 0.00957 µM)	0.06 µg/mL (≈ 0.0383 µM)	
CO/C(C)=C1/NC(=O)C(C(C)O)NC(=O)c2csc(n2)-c2cc(O)c(-c3nc(C(=O)NC(CSCCC(=O)O)C(N)=O)cs3)nc2-c2csc(n2)C2COC(=O)c3c4c5c(cccc5n3O)COC(=O)C(O[C@H]3C[C@](C)(O)[C@H](N(C)C)[C@H](C)O3)C(OC4)C(NC(=O)c3csc1n3)c1nc(cs1)C(=O)N2 (stereo partly drawn) [Example 40]	0.03 (≈ 0.0194 µM)	1.0 (≈ 0.648 µM)	(4.0) μg/mL	
CO/C(C)=C1/NC(=O)C(C(C)O)NC(=O)c2csc(n2)-c2cc(O)c(-c3nc(C(=O)NC(CN4CCN(c5ncccn5)CC4)C(N)=O)cs3)nc2-c2csc(n2)C2COC(=O)c3c4c5c(cccc5n3O)COC(=O)C(O[C@H]3C[C@](C)(O)[C@H](N(C)C)[C@H](C)O3)C(OC4)C(NC(=O)c3csc1n3)c1nc(cs1)C(=O)N2 (stereo partly drawn) [Example 22]				MIC (μg/mL) against Streptococcus pneumoniae A28272 [1]: 0.0005 µg/mL (≈ 0.000312 µM); MIC (μg/mL) against Staphylococcus aureus A15090 [2]: 0.5 µg/mL (≈ 0.312 µM); MIC (μg/mL) against Enterococcus faecalis A20688 [3]: 1.0 µg/mL (≈ 0.624 µM)
CO/C(C)=C1/NC(=O)C(C(C)O)NC(=O)c2csc(n2)-c2cc(O)c(-c3nc(C(=O)NC(CSCCS(=O)(=O)O)C(N)=O)cs3)nc2-c2csc(n2)C2COC(=O)c3c4c5c(cccc5n3O)COC(=O)C(O[C@H]3C[C@](C)(O)[C@H](N(C)C)[C@H](C)O3)C(OC4)C(NC(=O)c3csc1n3)c1nc(cs1)C(=O)N2 (stereo partly drawn) [Example 46]	0.06 (≈ 0.038 µM)	4.0 (≈ 2.53 µM)	128 µg/mL (≈ 81 µM)	
CNC(=O)On1c2c3c4c(cccc41)COC(=O)C(OC1CC(C)(O)C(N(C)C)C(C)O1)C(OC3)C1NC(=O)c3csc(n3)C(=C(C)OC)NC(=O)C(C(C)O)NC(=O)c3csc(n3)-c3cc(O)c(-c4nc(C(=O)NC(CN(C)C(=O)NC)C(N)=O)cs4)nc3-c3csc(n3)C(COC2=O)NC(=O)c2csc1n2 (stereo not drawn) [Example 108]	0.03 (≈ 0.019 µM)	0.125 (≈ 0.079 µM)	0.5 µg/mL (≈ 0.316 µM)	
COC(C)=C1NC(=O)C(C(C)O)NC(=O)c2csc(n2)-c2cc(O)c(-c3nc(C(=O)NC(CN4CCCC4C(O)C(C)C)C(N)=O)cs3)nc2-c2csc(n2)C2COC(=O)c3c4c5c(cccc5n3O)COC(=O)C(OC3CC(C)(O)C(N(C)C)C(C)O3)C(OC4)C(NC(=O)c3csc1n3)c1nc(cs1)C(=O)N2 (stereo not drawn) [Example 81]	0.007 (≈ 0.00443 µM)	0.125 (≈ 0.0791 µM)	0.125 µg/mL (≈ 0.0791 µM)	
CO/C(C)=C1/NC(=O)C(C(C)O)NC(=O)c2csc(n2)-c2cc(O)c(-c3nc(C(=O)NC(CS(=O)(=O)C4CN5CCC4CC5)C(N)=O)cs3)nc2-c2csc(n2)C2COC(=O)c3c4c5c(cccc5n3O)COC(=O)C(O[C@H]3C[C@](C)(O)C(N(C)C)[C@H](C)O3)C(OC4)C(NC(=O)c3csc1n3)c1nc(cs1)C(=O)N2 (stereo partly drawn) [Example 104]				MIC [1]: 0.06 µg/mL (≈ 0.0372 µM); MIC [2]: 0.5 µg/mL (≈ 0.31 µM); MIC [3]: 1 µg/mL (≈ 0.62 µM)
CO/C(C)=C1/NC(=O)C(C(C)O)NC(=O)c2csc(n2)-c2cc(O)c(-c3nc(C(=O)NC(CSCC(=O)OCc4ccccc4)C(N)=O)cs3)nc2-c2csc(n2)C2COC(=O)c3c4c5c(cccc5n3O)COC(=O)C(O[C@H]3C[C@](C)(O)[C@H](N(C)C)[C@H](C)O3)C(OC4)C(NC(=O)c3csc1n3)c1nc(cs1)C(=O)N2 (stereo partly drawn) [Example 34]	0.001 (≈ 0.000617 µM)	1.0 (≈ 0.617 µM)	1.0 µg/mL (≈ 0.617 µM)	
CO/C(C)=C1/NC(=O)C(C(C)O)NC(=O)c2csc(n2)-c2cc(O)c(-c3nc(C(=O)NC(CS(=O)(=O)C4C[N+]5([O-])CCC4CC5)C(N)=O)cs3)nc2-c2csc(n2)C2COC(=O)c3c4c5c(cccc5n3O)COC(=O)C(OC3CC(C)(O)C([N+](C)(C)[O-])C(C)O3)C(OC4)C(NC(=O)c3csc1n3)c1nc(cs1)C(=O)N2 (stereo not drawn) [Example 105]				MIC [1]: 0.25 µg/mL (≈ 0.152 µM); MIC [2]: 1 µg/mL (≈ 0.608 µM); MIC [3]: 2 µg/mL (≈ 1.22 µM)
